Experimental data taken from ChEMBL document CHEMBL1201862, “PubChem BioAssay data set” (2004).
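Each compound was tested at five concentrations against cells in 96-well plates for 48 hours. GI50 marks 50% less growth.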 Calls of active or inactive are those of the source. No stated cut-off is given here; in the data, active = GI50 up to about 1.1 µM and inactive = higher.

How the values were obtained:
Experiment in all cases: DTP human tumour cell line panel, 48 h
[1] = tested on: PC-3
[2] = tested on: SN12C
[3] = tested on: U-251
[4] = tested on: HT-29
[5] = tested on: SK-OV-3
[6] = tested on: HOP-62
[7] = tested on: T47D
[8] = tested on: NCI-H522
[9] = tested on: MDA-MB-231
[10] = tested on: UACC-62
[11] = tested on: EKVX
[12] = tested on: SK-MEL-28
[13] = tested on: K562
[14] = tested on: COLO 205
[15] = tested on: ACHN
[16] = tested on: KM-20L2
[17] = tested on: DMS-114
[18] = tested on: DMS-273
[19] = tested on: SNB-78

Measured: GI50

CC(=O)ON(C(C)=O)c1ccc(-c2nc3ccccc3s2)cc1
inactive: [1] 50.6 µM | [2] 40.7 µM | [3] 24.2 µM | [4] 24 µM | [5] 31.3 µM | [6] 22 µM | [7] 17.4 µM | [8] 15.1 µM | [9] 25 µM | [10] 20.9 µM | [11] 13.1 µM | [12] 31.8 µM | [13] 41 µM | [14] 18.7 µM | [15] 19.4 µM

COc1ccc2nc(-c3ccccc3)cc(OCC(=O)O)c2c1
inactive: [1] > 100 µM | [2] > 100 µM | [3] > 100 µM | [4] > 100 µM | [5] > 100 µM | [6] > 100 µM | [7] > 100 µM | [8] > 100 µM | [9] > 100 µM | [10] > 100 µM | [11] > 100 µM | [12] > 100 µM | [13] > 100 µM | [14] > 100 µM | [15] > 100 µM

CC(=O)NNc1nc(C)c(C(/C=C/c2ccc(Cl)cc2)=N/NC(=O)C[N+](C)(C)C)s1
inactive: [16] > 100 µM | [4] > 100 µM | [5] > 100 µM | [8] > 100 µM | [10] > 100 µM | [11] > 100 µM | [17] > 100 µM | [12] > 100 µM | [13] > 100 µM | [14] > 100 µM | [15] > 100 µM | [18] > 100 µM

Nc1nc(N)c(-c2ccccc2)c(C(=O)Nc2nccs2)n1
inactive: [16] > 100 µM | [2] > 100 µM | [3] > 100 µM | [19] > 100 µM | [4] > 100 µM | [5] > 100 µM | [6] > 100 µM | [10] > 100 µM | [11] > 100 µM | [17] > 100 µM | [12] > 100 µM | [13] > 100 µM | [14] > 100 µM | [15] > 100 µM

CCOC(=O)c1c(C)n(Cc2ccccc2)c(=O)c2ccccc2c(=O)c2c(=O)ccc(=O)c1=2
inactive: [1] 39.7 µM | [2] 41 µM | [3] > 100 µM | [4] 42.8 µM | [5] > 100 µM | [6] > 100 µM | [7] 30.6 µM | [8] 23.9 µM | [9] 65 µM | [10] > 100 µM | [11] > 100 µM | [12] 55.7 µM | [13] 43.3 µM | [14] 43.4 µM | [15] 30.7 µM

COc1cc(C2c3cc4c(cc3C(O)C3CCC(=O)N23)OCO4)cc(OC)c1OC (stereo not given)
inactive: [1] 54.3 µM | [2] 58.7 µM | [3] 26.1 µM | [4] 29.9 µM | [5] 80.2 µM | [6] 39.2 µM | [7] > 100 µM | [8] 16.9 µM | [9] > 100 µM | [10] 40.8 µM | [11] > 100 µM | [12] 16.8 µM | [13] 26.5 µM | [14] 37 µM | [15] 40 µM

CCOC(=O)NC(=O)c1cn(CCN2CCN(C(=O)CCCCCCCCCCNc3ncnc4[nH]cnc34)CC2)c(=O)[nH]c1=O
inactive: [16] > 100 µM | [2] > 100 µM | [3] > 100 µM | [19] 32.4 µM | [4] > 100 µM | [5] > 100 µM | [6] > 100 µM | [10] 25.8 µM | [11] > 100 µM | [12] 11.5 µM | [13] 58.7 µM | [14] > 100 µM | [15] 37.8 µM | [18] > 100 µM

Cc1ccc(S(=O)(=O)N/N=C(\C(=O)Nc2cccc([N+](=O)[O-])c2)c2nc3ccc([N+](=O)[O-])cc3nc2O)cc1
inactive: [2] > 100 µM | [3] 70.3 µM | [19] > 100 µM | [4] 53 µM | [5] > 100 µM | [6] 81.8 µM | [8] 5.66 µM | [10] 25.4 µM | [11] 33.5 µM | [17] 10.2 µM | [12] > 100 µM | [13] 7.38 µM | [14] 28.2 µM | [15] 13.8 µM

COc1cc(C(C)c2cc3c(cc2OCCNC(=O)COc2cc4c(cc2C(C)c2cc(OC)c(OC)c(OC)c2)OCO4)OCO3)cc(OC)c1OC (stereo not given)
inactive: [16] > 100 µM | [2] 60 µM | [3] > 100 µM | [4] > 100 µM | [6] 58.7 µM | [8] 29.5 µM | [10] 6.78 µM | [11] 29.6 µM | [17] 26.9 µM | [12] > 100 µM | [13] 73.1 µM | [14] 48.2 µM | [15] 63.2 µM | [18] 75.9 µM

COC(=O)C1=C(C(=O)OC)C2=S(SC3=C2CCCC3)S1 (stereo not given)
inactive: [16] 24.6 µM | [2] 25.5 µM | [3] 19.6 µM | [4] 18.7 µM | [5] > 100 µM | [6] > 100 µM | [8] 2.2 µM | [10] 26 µM | [11] > 100 µM | [12] 29.7 µM | [13] 4.35 µM | [14] 23.4 µM | [15] 28.1 µM | [18] 13.1 µM

CCCN(CCc1ccc(-c2ccccc2)cc1)CCc1ccc2nn[nH]c2c1
inactive: [1] 9.44 µM | [2] 13.6 µM | [3] 12.9 µM | [4] 11.5 µM | [5] 14.2 µM | [6] 12.5 µM | [7] 4.04 µM | [8] 11.8 µM | [9] 13.6 µM | [10] 9.23 µM | [11] 13.5 µM | [12] 4.31 µM | [13] 2.94 µM | [14] 2.55 µM | [15] 12.8 µM

CC1=CCC[C@@]2(C)C(CC[C@@H]2C(C)/C=C/C(C)C)c2ccc(cc2C(=O)O)C[C@@H](O)CC1 (stereo not given in full)
inactive: [2] 16 µM | [3] 3.94 µM | [19] 16.1 µM | [4] 5.13 µM | [5] 18.1 µM | [6] 20 µM | [8] 13.5 µM | [10] 10.9 µM | [17] 18.5 µM | [12] 14.7 µM | [13] 9.89 µM | [15] 6.37 µM | [18] 14.4 µM

CCN(CC)/C(SCc1ccccc1)=C(\C(Cl)=C(Cl)Cl)[N+](=O)[O-]
inactive: [1] 21.6 µM | [2] 21.1 µM | [3] 22.9 µM | [4] 25.8 µM | [5] 39.6 µM | [6] 22 µM | [7] 18.9 µM | [8] 16.6 µM | [9] 27.1 µM | [10] 3.87 µM | [11] 22.9 µM | [12] 15.9 µM | [13] 25.8 µM | [14] 17.6 µM | [15] 16.3 µM
